Measurements published in patent US9850283B2, “Macrocyclic inhibitors of the PD-1/PD-L1 and CD80(B7-1)/PD-L1 protein/protein interactions” (BRISTOL-MYERS SQUIBB COMPANY, priority 2013, dated 2017).
Read-outs that look alike come from different tables or passages of the source. Starred links: 1 amine or outer side, 2 acyl side, 3 side chain; linkers in the order of their positions; H or OH if unused. Positions of bridges follow the written chain, without caps; N, C: chain ends. Non-standard residues stand in square brackets, D forms with d. Residues, ends and D or L forms follow the SMILES beside them. ξ: configuration not given here. Pro(trans-4-Ph) = O=C(O)[C@@H]1C[C@@H](c2ccccc2)CN1; Phe(3,4,5-F3) = N[C@@H](Cc1cc(F)c(F)c(F)c1)C(=O)O; Phe(4-CH2NH2) = NCc1ccc(C[C@H](N)C(=O)O)cc1; Phe(3-Cl) = N[C@@H](Cc1cccc(Cl)c1)C(=O)O; Bta = N[C@@H](Cc1csc2ccccc12)C(=O)O; Hyp = O=C(O)[C@@H]1C[C@@H](O)CN1; NMeF = CN[C@@H](Cc1ccccc1)C(=O)O; X4 = O=C([C@H]1COCCN1[*:1])[*:2]; dHyp = O=C(O)[C@H]1C[C@H](O)CN1; NMeNle = CCCC[C@H](NC)C(=O)O; NMeM = CN[C@@H](CCSC)C(=O)O; NMeA = CN[C@@H](C)C(=O)O; Orn = NCCC[C@H](N)C(=O)O; Dab = NCC[C@H](N)C(=O)O; Dap = NC[C@H](N)C(=O)O; ξC = NC(CS)C(=O)O; Sar = CNCC(=O)O

Experiments:
[1] = biological target: T1, LK35.2-hPD-L1 cells / PE-labeled PD-1-Ig (Homo sapiens, UniProt Q9NZQ7); experiment: LK35.2-hPD-L1 cell binding high-content screening assay; assay type: cell-based; details: cluster symbol, read-out: CBA IC50 cluster
T1 construct: expressed in transfected cells; host or cells: LK35.2 mouse B cell line
T1 sequence (Q9NZQ7 19-290): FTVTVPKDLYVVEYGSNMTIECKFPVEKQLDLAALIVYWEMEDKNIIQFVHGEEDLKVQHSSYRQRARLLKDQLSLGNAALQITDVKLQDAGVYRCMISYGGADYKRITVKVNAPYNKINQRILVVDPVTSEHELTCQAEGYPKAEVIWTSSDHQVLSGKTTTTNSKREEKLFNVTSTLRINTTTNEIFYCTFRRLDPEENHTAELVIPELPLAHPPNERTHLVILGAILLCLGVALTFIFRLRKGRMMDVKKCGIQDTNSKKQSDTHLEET
How it was run: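 Using overnight-cultured LK35.2-hPD-L1 mouse B cells, compound was co-incubated with phycoerythrin-tagged human PD-1-Ig (final 1 nM) at 37 °C for one hour. Unbound label was removed by triple dPBS washing prior to high-content image acquisition and analysis.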

[2] = biological target: T2, Human PD-L1/PD-1 (Homo sapiens, UniProt Q9NZQ7); experiment: HTRF PD-1-Ig/PD-L1-His binding assay (human PD-L1); details: cluster symbol; read-out: HTRF IC50 cluster
T2 construct: made in house; host or cells: HEK293T
T2 sequence (Q9NZQ7 with tags, fused parts or gaps): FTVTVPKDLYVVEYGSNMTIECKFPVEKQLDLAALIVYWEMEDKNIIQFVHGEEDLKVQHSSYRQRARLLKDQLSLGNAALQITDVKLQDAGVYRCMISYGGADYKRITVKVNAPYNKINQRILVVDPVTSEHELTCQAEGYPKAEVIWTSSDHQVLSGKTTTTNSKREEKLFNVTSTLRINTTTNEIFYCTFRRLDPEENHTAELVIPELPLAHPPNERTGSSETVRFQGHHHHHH
How it was run: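 The time-resolved fluorescence signal comes from Eu-cryptate anti-Ig (1 nM) and APC anti-His (20 nM) antibodies bound to a PD-1-Ig/PD-L1-His complex. Both partners lack transmembrane regions.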

[3] = cell binding assay, cell line not given
[4] = cell line of CBA not given (LK35.2-hPD-L1 or 293T-hPD-L1)

Row | Structure (SMILES) | IC50 [1, 3] [nM] | IC50 [2] [nM] | IC50 [1, 4] [nM]
1 | CCCC[C@H]1C(=O)N2C[C@@H](O)C[C@@H]2C(=O)N[C@@H](CC(N)=O)C(=O)N[C@@H](C(C)C)C(=O)N(C)[C@@H](Cc2ccccc2)C(=O)N[C@@H](CCCN)C(=O)N2CCOC[C@@H]2C(=O)N[C@@H](Cc2c[nH]c3ccccc23)C(=O)N[C@@H](Cc2ccc(O)cc2)C(=O)N[C@@H](CCCN)C(=O)N[C@H](C(=O)NCC(N)=O)CSCC(=O)N[C@@H](Cc2cc(F)c(F)c(F)c2)C(=O)N(C)[C@@H](Cc2ccccc2)C(=O)N1C [Example 3607] ({CH2CO}-[Phe(3,4,5-F3)][NMeF][NMeNle][dHyp]NV[NMeF][Orn][X4]WY[Orn]CG-NH2; thioether N-13) | 0.158 to 4.71 | 0.385 to 6.74 | 
2 | CCCC[C@H]1C(=O)N(C)CC(=O)N[C@@H](CC(=O)O)C(=O)N[C@@H](C(C)C)C(=O)N[C@@H](Cc2cccc(Cl)c2)C(=O)N[C@@H](Cc2ccc(O)cc2)C(=O)N(C)CC(=O)N[C@@H](Cc2c[nH]c3ccccc23)C(=O)N[C@@H](Cc2ccc(O)cc2)C(=O)N[C@@H](CC(C)C)C(=O)N[C@H](C(=O)NCC(N)=O)CSCC(=O)N[C@@H](Cc2ccccc2)C(=O)N(C)[C@@H](Cc2ccccc2)C(=O)N1C [Example 3131] ({CH2CO}-F[NMeF][NMeNle][Sar]DV[Phe(3-Cl)]Y[Sar]WYLCG-NH2; thioether N-13) |  | > 30.5 | > 74.3
3 | CCCC[C@H]1C(=O)N2CCC[C@@H]2C(=O)N[C@@H](CC(N)=O)C(=O)N[C@@H](C(C)C)C(=O)N(C)[C@@H](Cc2ccccc2)C(=O)N[C@@H](Cc2ccc(CN)cc2)C(=O)N2CCC[C@@H]2C(=O)N[C@@H](Cc2c[nH]c3ccccc23)C(=O)N[C@@H](Cc2ccc(O)cc2)C(=O)N[C@@H](CCCCN)C(=O)N[C@H](C(=O)NCC(N)=O)CSCC(=O)N[C@@H](Cc2cc(F)c(F)c(F)c2)C(=O)N(C)[C@@H](Cc2ccccc2)C(=O)N1C [Example 3198] ({CH2CO}-[Phe(3,4,5-F3)][NMeF][NMeNle][dP]NV[NMeF][Phe(4-CH2NH2)][dP]WYKCG-NH2; thioether N-13) |  | 6.76 to 30.3 | 0.158 to 4.71
4 | CCCC[C@H]1C(=O)N(C)CC(=O)N[C@@H](CC(=O)O)C(=O)N[C@@H](C(C)C)C(=O)N(C)[C@@H](Cc2ccccc2)C(=O)N[C@@H](Cc2ccc(O)cc2)C(=O)N(C)CC(=O)N[C@@H](Cc2c[nH]c3ccccc23)C(=O)N[C@@H](Cc2ccc(CN)cc2)C(=O)N[C@@H](CC(C)C)C(=O)N[C@H](C(=O)NCC(N)=O)CSCC(=O)N[C@@H](Cc2ccccc2)C(=O)N(C)[C@@H](Cc2ccccc2)C(=O)N1C [Example 3514] ({CH2CO}-F[NMeF][NMeNle][Sar]DV[NMeF]Y[Sar]W[Phe(4-CH2NH2)]LCG-NH2; thioether N-13) | 4.78 to 72.9 | 6.76 to 30.3 | 
5 | CCCC[C@H]1C(=O)N2CCC[C@H]2C(=O)N[C@@H](CC(=O)O)C(=O)N[C@@H](C(C)C)C(=O)N(C)[C@@H](Cc2ccccc2)C(=O)N[C@@H](Cc2ccc(O)cc2)C(=O)N2CCC[C@H]2C(=O)N[C@@H](Cc2c[nH]c3ccccc23)C(=O)N[C@@H](Cc2ccc(O)cc2)C(=O)N[C@@H](CC(C)C)C(=O)N[C@H](C(=O)NCC(N)=O)CSCC(=O)N[C@@H](Cc2ccccc2)C(=O)N(C)[C@@H](Cc2ccccc2)C(=O)N1C [Example 3070] (HELM PEPTIDE1{[O=C(C[*:3])[*:2]].F.[meF].[CCCC[C@@H](C(=O)[*:2])N(C)[*:1]].P.D.V.[meF].Y.P.W.Y.L.C.G.[am]}$PEPTIDE1,PEPTIDE1,1:R3-14:R3$$$V2.0) |  | > 30.5 | > 74.3
6 | CCCC[C@H]1C(=O)N(C)CC(=O)N[C@@H](CC(=O)O)C(=O)N[C@@H](C(C)C)C(=O)N(C)[C@@H](Cc2ccccc2)C(=O)N[C@@H](Cc2ccc(O)cc2)C(=O)N(C)CC(=O)N[C@@H](Cc2c[nH]c3ccccc23)C(=O)N[C@@H](Cc2ccc(O)cc2)C(=O)N[C@H](C(=O)NCC(N)=O)CSCC(=O)N[C@@H](Cc2ccccc2)C(=O)N(C)[C@@H](Cc2ccccc2)C(=O)N1C [Example 3054] (HELM PEPTIDE1{[O=C(C[*:3])[*:2]].F.[meF].[CCCC[C@@H](C(=O)[*:2])N(C)[*:1]].[Sar].D.V.[meF].Y.[Sar].W.Y.C.G.[am]}$PEPTIDE1,PEPTIDE1,1:R3-13:R3$$$V2.0) |  | > 30.5 | > 74.3

Continued, values first:

Row | IC50 [1, 3] [nM] | IC50 [2] [nM] | IC50 [1, 4] [nM] | Structure (SMILES)
7 | 4.78 to 72.9 | 6.76 to 30.3 |  | CCCC[C@H]1C(=O)N(C)[C@@H](CCCC)C(=O)N[C@@H](CCCNC(=N)N)C(=O)N[C@H](C(=O)NCC(N)=O)CSCC(=O)N[C@@H](Cc2ccc(O)cc2)C(=O)N(C)[C@@H](C)C(=O)N[C@@H](CCCN)C(=O)N2CCC[C@H]2C(=O)N[C@@H](Cc2c[nH]cn2)C(=O)N[C@@H](CC(=O)O)C(=O)N2C[C@H](O)C[C@H]2C(=O)N[C@@H](Cc2c[nH]c3ccccc23)C(=O)N[C@@H](CO)C(=O)N[C@@H](Cc2c[nH]c3ccccc23)C(=O)N1C [Example 5105] ({CH2CO}-Y[NMeA][Orn]PHD[Hyp]WSW[NMeNle][NMeNle]RCG-NH2; thioether N-14)
8 | 0.158 to 4.71 | 0.385 to 6.74 |  | CCCC[C@H]1C(=O)N(C)[C@@H](CCSC)C(=O)N[C@@H](CCCNC(=N)N)C(=O)NC(C(=O)NCC(N)=O)CSCC(=O)N[C@@H](Cc2ccc(O)cc2)C(=O)N(C)[C@@H](C)C(=O)N[C@@H](CC(N)=O)C(=O)N2CCC[C@H]2C(=O)N[C@@H](CN)C(=O)N[C@@H](CC(C)C)C(=O)N2C[C@H](O)C[C@H]2C(=O)N[C@@H](Cc2c[nH]c3ccccc23)C(=O)N[C@@H](CO)C(=O)N[C@@H](Cc2csc3ccccc23)C(=O)N1C (stereo partly shown) [Example 9084] ({CH2CO}-Y[NMeA]NP[Dap]L[Hyp]WS[Bta][NMeNle][NMeM]R[ξC]G-NH2; thioether N-14)
9 | 0.158 to 4.71 | 0.385 to 6.74 |  | CCCC[C@H]1C(=O)N(C)[C@@H](CCSC)C(=O)N[C@@H](CCCNC(=N)N)C(=O)NC(C(=O)NCC(N)=O)CSCC(=O)N[C@@H](Cc2ccc(O)cc2)C(=O)N(C)[C@@H](C)C(=O)N[C@@H](CC(N)=O)C(=O)N2CCC[C@H]2C(=O)N[C@@H](CN)C(=O)N[C@@H](CC(C)C)C(=O)N2CCC[C@H]2C(=O)N[C@@H](Cc2c[nH]c3ccccc23)C(=O)N[C@@H](CO)C(=O)N[C@@H](Cc2c[nH]c3ccccc23)C(=O)N1C (stereo partly shown) [Example 9081] ({CH2CO}-Y[NMeA]NP[Dap]LPWSW[NMeNle][NMeM]R[ξC]G-NH2; thioether N-14)
10 | 4.78 to 72.9 | 0.385 to 6.74 |  | CCCC[C@H]1C(=O)N(C)[C@@H](CCCC)C(=O)N[C@@H](CCCNC(=N)N)C(=O)N[C@H](C(=O)NCC(N)=O)CSCC(=O)N[C@@H](Cc2ccc(O)cc2)C(=O)N(C)[C@@H](C)C(=O)N[C@@H](CCN)C(=O)N2CCC[C@H]2C(=O)NCC(=O)N[C@@H](CCC(=O)O)C(=O)N2C[C@H](O)C[C@H]2C(=O)N[C@@H](Cc2c[nH]c3ccccc23)C(=O)N[C@@H](CO)C(=O)N[C@@H](Cc2c[nH]c3ccccc23)C(=O)N1C [Example 5129] ({CH2CO}-Y[NMeA][Dab]PGE[Hyp]WSW[NMeNle][NMeNle]RCG-NH2; thioether N-14)
11 | 0.158 to 4.71 | 0.385 to 6.74 |  | CCCC[C@H]1C(=O)N(C)[C@@H](CCCC)C(=O)N[C@@H](CCC(=O)O)C(=O)N[C@H](C(=O)NCC(N)=O)CSCC(=O)N[C@@H](Cc2ccc(O)cc2)C(=O)N(C)[C@@H](C)C(=O)N[C@@H](CC(=O)O)C(=O)N2CCC[C@H]2C(=O)N[C@@H](Cc2c[nH]cn2)C(=O)N[C@@H](CCCCN)C(=O)N2C[C@H](c3ccccc3)C[C@H]2C(=O)N[C@@H](Cc2c[nH]c3ccccc23)C(=O)N[C@@H](CCCCN)C(=O)N[C@@H](Cc2c[nH]c3ccccc23)C(=O)N1C [Example 14002] ({CH2CO}-Y[NMeA]DPHK[Pro(trans-4-Ph)]WKW[NMeNle][NMeNle]ECG-NH2; thioether N-14)
